Experimental data taken from paper PMC8777952, “Lignin Nanoparticles Deliver Novel Thymine Biomimetic Photo-Adducts with Antimelanoma Activity” (International Journal of Molecular Sciences, 2022).

Assays:
RPMI7951 = test: MTT cell viability assay, RPMI7951 melanoma cells; format: cell-based, human; details: for SI (RPMI7951): 24 h, ratio reference cell line FB789 versus melanoma cell line; for IC50: Homo sapiens, RPMI-7951, 24 h
Source text: (§1) Preliminary sunscreen data of 4a-d have been reported focusing on SKH1-E cell line, human abdominal skin explants, and in vivo hairless mouse models. Data for photo-adducts 6a-d, 7a-d, and 8a-d are not available. Thymine photo-adducts are well recognized as responsible for the activation of different molecular pathways involved in the cellular response to UV damage, including DNA repair system, melanogenesis, and Nucleotide Excision Repair (NER) system. In addition, TOP1ccs trapped near photo-adducts activates BER and remove (6-4)PPs in NER-deficient cells. TOP1 is highly expressed in malignant tumors, including carcinomas of the colon, prostate, ovary, lung, and melanoma. […] For this reason, we decided to study the antimelanoma activity of 4a-d, 6a-d, and 8a-d against two melanoma cancer cell lines, namely SK-MEL28 and RPMI7951 bearing a different genetic background. The antimelanoma activity was determined using the MTT cell viability assay, following the absorbance change (λmax 570 nm and 630 nm). The human FB789 cell line was used as reference. The CC50 (cytotoxic concentration that causes death of 50% of viable cells), IC50 (minimum concentration inhibiting 50% of the melanoma cells), and Selective Index (SI) (ratio between IC50 of reference cell line versus melanoma cell line) values are reported in Table 5. […] Compounds 4a-d were ineffective against melanoma cell lines. […] 234. Next, the antimelanoma activity of compounds 8a and 8b was evaluated after loading inside LNPs.
(§2) FB789 was grown in DMEM/F10, RPMI7951 melanoma cancer cells were grown in Minimal Essential Medium (MEM), while SK-Mel 28 melanoma cancer cells were grown in Dulbecco’s Modified Eagle Medium (DMEM). All culture media were supplemented with 10% Fetal Bovine Serum (FBS) plus 1.0 mM glutamine (40 µg/mL). The antimelanoma activity of 4a-d, 6a-d, and 8a-d was evaluated by MTT viability assay according to reference. Briefly, aliquots of the appropriate compound ([…]) were solubilized in dimethyl sulfoxide (one drops, DMSO) and administered to the selected cell line. After incubation for 3 h at 37 °C with MTT (0.5 mg/mL) the supernatant was removed, and […] of lysis solution (10% SDS and 0.6% acetic acid) was added to dissolve the formazan crystals. Optical density detection was performed by DTX880 Multimode Detector (Beckman Coulter) with 630 nm (background) and 570 nm filters. The percentage of cell viability was calculated as follows: % cell viability = 100–% cell cytotoxicity. The experiments for the evaluation of the antimelanoma activity of LNPs/8a and LNPs/8b were performed in a similar way using the appropriate amount of nanoparticles containing 1.0 mmol of the active compound and analyzing the antimelanoma activity at three different release times (2, 4, and 24 h).

[1] = MTT cell viability assay, FB789 reference cell line; format: cell-based; details: FB789 cells (normal human fibroblast)
Source text: as §1, §2

SK-Mel28 = test: MTT cell viability assay, SK-Mel28 melanoma cells; format: cell-based, human; details: for SI (SKMel28): 24 h, ratio reference cell line FB789 versus melanoma cell line; for IC50: Homo sapiens, SK-MEL-28, 24 h
Source text: as §1, §2

[2] = Loading capacity and loading efficiency of lignin nanoparticles; format: physicochemical
Description: A further increase in the secondary solvent afforded low stable colloidal LNPs (18 mL; Table 3, entry 4) and aggregates (24 mL; Table 3, entry 5). Finally, LNPs were not formed after the addition of high volumes of deionized water (Table 3, entries 6–8). The optimal conditions affording stable colloidal LNPs (1:5 w/w and 1:10 w/w 4a/KL ratio, 3.0 mL of DMI/water 2:1 v/v, and 6.0 mL of secondary solvent) were successively applied for the encapsulation of 4b-d, and of the most abundant photo-adducts 6a-d and 8a-d. The loading capacity (LC) and loading efficiency (LE) Equations (1) and (2) were measured as a function of the concentration of the encapsulated compound [55, 56, 57, 58].
LNPs were separated by centrifugation, and the supernatant was analyzed by HPLC at λmax value of the encapsulated compound (271 nm for 4a-d, 191 nm for 6a-d, and 192 nm for 8a-d, respectively). Irrespective from the experimental conditions, the highest LE and LC were obtained in the presence of the highest value of the compound/KL ratio (compound/KL ratio of 1:5). […] (1) LC %:weight of starting drug−weight of unloaded drug/weight of lignin (2) LE %:weight of starting drug−weight of unloaded drug/weight of starting drug
LNPs were produced and loaded by the nanoprecipitation technique. The appropriate compound (3 mg) was dissolved in DMI/water (3.0 mL) at 50 °C under gentle stirring conditions followed by the addition of KL (15 mg). The fast addition of deionized water (6.0 mL) instantaneously produced LNPs. LNPs were then recovered by centrifugation (7500 rpm), washed with deionized water (10 mL) for 3 times, and lyophilized. The loading capacity (LC) and loading efficiency (LE) were evaluated by UHPLC analysis.

[3] = Cumulative (kinetic) release from lignin nanoparticles by dialysis; format: physicochemical; details: pH 5.5, first 4 h, 37.5 °C
Description: The cumulative releasing capacity of LNPs was evaluated as previously reported in the literature and normalized with respect to the total amount of entrapped compound. In a typical procedure, the appropriate LNPs (7.5 mg) were suspended in water (3.0 mL) and dialyzed against deionized water (60.0 mL) at two selected pH values (pH 7.4 and 5.5, respectively) at 37.5 °C for 24 h. The amount of released compound was measured by UV–vis spectrophotometry at the optimal λmax value for each compound by sampling the dialysis solution at appropriate time intervals (Figure 4). The withdrawn volume was replaced by corresponding deionized water in order to maintain constant the volume of the solution (Section 3).
LNPs (7.5 mg, compound/KL 1:5 ratio) were suspended in water (3.0 mL), placed in a dialysis membrane, and immersed in PBS buffer (60 mL) at two selected pH values (7.4 and 5.5, respectively) at 37.5 °C for 24 h. A similar procedure was applied solubilizing LNPs/8b (7.5 mg) water (3.0 mL), followed by dialysis against the culture medium DMEM (60 mL). […] The quantification of released compound was conducted by UV–Vis spectrophotometry at the λmax characteristic for each type of compound (271 nm for 4a-d, and 191 and 192 nm for 6a-d and 8a-d, respectively) using semi-micro cuvettes. […]

[4] = design: method as in PMID 25075037; details: commercial antitumor agents; cited from earlier work
[5] = UV shielding (photo-protective) capacity of loaded LNPs; format: physicochemical; details: after 15 min of irradiation, loaded in LNPs versus free compound
Description: The UV shielding capacity of LNPs allows them to protect bioactive compounds from premature deactivation. To evaluate the photo-protective role of LNPs we studied the irradiation of LNPs/4a, LNPs/6a, LNPs/7a, and LNPs/8a as a selected representative example of thymine dimers. The samples were suspended in DMI/water mixture (2:1 v/v, 1.0 mL) and treated with UV under previously reported experimental conditions. At scheduled times (5, 10, and 15 min), aliquots (0.2 mL) of the suspension were withdrawn and analyzed. An excess of DMI (1.0 mL) was added to disaggregate LNPs, followed by filtration of residual lignin. The residual concentrations of 4a, 6a, 7a, and 8a (expressed as % with respect to the starting material) were evaluated at λmax 271 nm. Data were compared with 4a, 6a, 7a, and 8a after irradiation under similar experimental conditions (Figure 3).
LNPs/4a were prepared following the standard procedure previously described. Typically, LNPs/4a (1.0 mg) suspended in DMI/water mixture (2:1 ratio, 1.0 mL) were deposited on a glass lens and irradiated with Haerus source (250 Watt, the lamp was at 20.0 cm distance). […] The photo-protection capacity of LNPs was determined by measuring the decrease in absorbance (λmax 271 nm) of recovered 4a compared with free reference (Varian UVCary-50). […]

| IC50 (RPMI7951) | IC50 (SK-Mel28) | LC% ([2]; Compd/KL ratio 1:5) | LE% ([2]; Compd/KL ratio 1:5) | LC% ([2]; Compd/KL ratio 1:10) | LE% ([2]; Compd/KL ratio 1:10) | cumulative release [3] | photo-protection capacity [5] | SMILES | SI (RPMI7951) (RPMI7951) | CC50 at 24 h [1] | SI (SKMel28) (SK-Mel28) | SI [4] |
| --- | --- | --- | --- | --- | --- | --- | --- | --- | --- | --- | --- | --- |
| 543.1 ± 2.7 µM | 304.3 ± 2.4 µM | 5.59% | 49.94% | 4.93% | 49.26% | – | – | Cc1cn(CCCn2cc(C)c(=O)[nH]c2=O)c(=O)[nH]c1=O [Compound 4a, N1,N1′-(propane-1,3-diyl)bis-thymine] | 2.7 | 1450 ± 56.2 µM | 4.7 | – |
| 12400 µM | 169 ± 4.6 µM | 10.38% | 51.91% | 4.24% | 52.40% | – | – | Cc1cn(CCCCn2cc(C)c(=O)[nH]c2=O)c(=O)[nH]c1=O [Compound 4b, N1,N1′-(butane-1,4-diyl)bis-thymine] | 0.07 | 839 ± 10.9 µM | 4.9 | – |
| 357 ± 5.1 µM | 292.9 ± 2.5 µM | 12.52% | 69.70% | 6.97% | 62.59% | – | – | Cc1cn(CCCCCn2cc(C)c(=O)[nH]c2=O)c(=O)[nH]c1=O [Compound 4c, N1,N1′-(pentane-1,5-diyl)bis-thymine] | 4.6 | 1660 ± 36.3 µM | 5.7 | – |
| 343 ± 7.6 µM | 169 ± 4.6 µM | 14.37% | 71.85% | 7.14% | 71.41% | 71% | – | Cc1cn(CCCCCCn2cc(C)c(=O)[nH]c2=O)c(=O)[nH]c1=O [Compound 4d, N1,N1′-(hexane-1,6-diyl)bis-thymine] | 1.14 | 392 ± 5.2 µM | 2.3 | – |
| – | – | – | – | – | – | – | – | O=c1[nH]cc(F)c(=O)[nH]1 [Compound 5-FU, 5-fluro uracil] | – | – | – | 55.6 |
| 138 ± 2.1 µM | 85.2 ± 0.9 µM | 6.93% | 37.40% | 6.81% | 41.12% | – | – | CC12C(=O)NC(=O)N3CCCN4C(=O)NC(=O)C1(C)C4C32 (centres unmarked) [Compound 6a, 6a,6b-dimethylhexahydro-1H-3a,5,8,9a-tetraazacyclohepta[def]biphenylene 4,6,7,9(5H,8H)-tetraone] | 2.7 | 375 ± 28.2 µM | 4.39 | – |
| 77.8 ± 1.8 µM | 17.9 ± 1.9 µM | 9.59% | 50.94% | 9.33% | 50.74% | – | – | CC12C(=O)NC(=O)N3CCCCN4C(=O)NC(=O)C1(C)C4C32 (centres unmarked) [Compound 6b, 7a,7b-dimethyloctahydro-4a,6,9,10a-tetraazacycloocta[def]biphenylene-5,7,8,10(6H,9H)-tetraone] | 1.4 | 109 ± 5.4 µM | 6.09 | – |
| 195 ± 3.8 µM | 282 ± 4.4 µM | 11.46% | 51.12% | 10.48% | 47.86% | – | – | CC12C(=O)NC(=O)N3CCCCCN4C(=O)NC(=O)C1(C)C4C32 (centres unmarked) [Compound 6c, 8a,8b-dimethyloctahydro-1H-5a,7,10,11a-tetraazacyclonona[def]biphenylene-6,8,9,11(7H,10H)-tetraone] | 1.2 | 234 ± 7.3 µM | 0.83 | – |
| 234.9 ± 1.6 µM | 87.9 ± 1.9 µM | 13.22% | 72.61% | 11.54% | 71.98% | – | – | CC12C(=O)NC(=O)N3CCCCCCN4C(=O)NC(=O)C1(C)C4C32 (centres unmarked) [Compound 6d, 9a,9b-dimethyldecahydro-6a,8,11,12a-tetraazacyclodeca[def]biphenylene-7,9,10,12(8H,11H)-tetraone] | 1.6 | 377 ± 14.8 µM | 4.3 | – |
| – | – | – | – | – | – | – | ~40% | Cc1cn2c(=O)nc1C1N(CCC2)C(=O)NC(=O)C1(C)O (centres unmarked) [Compound 7a, 4-hydroxy-4,6-dimethyl-4,4a,10,11-tetrahydro-1H,9H-5,8-(azenomethano)pyrimido[1,6-e][1,5]diazonine-1,3,13(2H)-trione] | – | – | – | – |
| – | – | – | – | – | – | – | – | CC[C@@]1(O)C(=O)OCc2c1cc1n(c2=O)Cc2cc3ccccc3nc2-1 [camptothecin] | – | – | – | 88.3 |
| – | – | – | – | – | – | – | – | COc1cccc2c1C(=O)c1c(O)c3c(c(O)c1C2=O)C[C@@](O)(C(=O)CO)C[C@@H]3O[C@H]1C[C@H](N)[C@H](O)[C@H](C)O1 [doxorubicin] | – | – | – | 26.0 |
